Starred links: 1 amine or outer side, 2 acyl side, 3 side chain; linkers in the order of their positions; H or OH if unused. Non-standard residues stand in square brackets, D forms with d. Residues, ends and D or L forms follow the SMILES beside them. *: point of attachment. NH(2-pyrrolidin-1-ylethyl) = C1CCN(CCN*)C1; dPhe(4-Cl) = N[C@H](Cc1ccc(Cl)cc1)C(=O)O; d2Nal = N[C@H](Cc1ccc2ccccc2c1)C(=O)O; NMeY = CN[C@@H](Cc1ccc(O)cc1)C(=O)O; Ethylenediamine = C(CN[*:2])N[*:1]; d3Pal = N[C@H](Cc1cccnc1)C(=O)O; Nicotinoyl = O=C(c1cccnc1)*; NH(CH2)6NH2 = NCCCCCCN*; NH(CH2)4NH2 = NCCCCN*; NHCH2CH2OH = OCCN*; NEt2 = CCN(CC)*; NHBu = CCCCN*

This assay addresses T1, LH release from rat pituitary cells (Rattus norvegicus, UniProt P30969).
T1 sequence (P30969 1-327): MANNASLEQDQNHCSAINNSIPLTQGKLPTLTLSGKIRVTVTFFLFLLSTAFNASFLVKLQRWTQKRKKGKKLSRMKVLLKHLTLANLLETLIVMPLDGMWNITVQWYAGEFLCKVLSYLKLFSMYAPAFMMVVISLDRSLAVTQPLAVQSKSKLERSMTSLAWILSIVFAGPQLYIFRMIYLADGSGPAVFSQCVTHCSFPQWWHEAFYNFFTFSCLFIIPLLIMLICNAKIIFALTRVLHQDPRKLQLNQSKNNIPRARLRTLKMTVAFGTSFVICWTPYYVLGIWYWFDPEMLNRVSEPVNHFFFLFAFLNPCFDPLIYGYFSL
Briefly: in vitro inhibition of LH release from rat pituitary cells (pA2). The format is cell-based. Particulars: pA2 = negative logarithm of antagonist concentration required to shift the response curve of the agonist leuprolide to two-fold higher concentration. On the procedure: Representative compounds of the present invention were evaluated in vitro for inhibition of LH release from rat pituitary cells (pA2). Methods for the assay procedures arc described by F. Haviv, et al. J. Med. Chem., 32:2340-2344 (1989). Values of pA2 are the negative logarithms of the concentration of the particular antagonist test compound required to shift the response curve produced by the agonist leuprolide to two-fold higher concentration. Typically values of 7.0 or greater are indicative of good LHRH antagonist potency, with values of 8.0 or greater being preferred. Leuprolide LHRH agonist, disclosed and claimed in U.S. Pat. No. 4,005,063, has the structure 5-oxo-Pro^1 -His^2 -Trp^3 -Ser^4 -Tyr^5 -D-Leu^6 -Leu^7 -Arg^8 -Pro^9 -NHEt.
Take `CCCCNC(=O)[C@H](CC(C)C)NC(=O)[C@@H](CCCCNC(=O)c1cccnc1)NC(=O)[C@H](Cc1ccc(O)cc1)N(C)C(=O)[C@H](CO)NC(=O)[C@@H](Cc1cccnc1)NC(=O)[C@@H](Cc1ccc(Cl)cc1)NC(=O)[C@@H](Cc1ccc2ccccc2c1)NC(C)=O` [Example 1, NAcD2Nal-D4ClPhe-D3Pal-Ser-NMeTyr-DLys(Nic)-Leu-NH-nBu] (Ac-[d2Nal][dPhe(4-Cl)][d3Pal]S[NMeY][dK](Nicotinoyl)L-NHBu): the “LHRH antagonist potency (pA2)” value is given as 7.90. For `CC(=O)N[C@H](Cc1ccc2ccccc2c1)C(=O)N[C@H](Cc1ccc(Cl)cc1)C(=O)N[C@H](Cc1cccnc1)C(=O)N[C@@H](CO)C(=O)N(C)[C@@H](Cc1ccc(O)cc1)C(=O)N[C@H](CCCCNC(=O)c1cccnc1)C(=O)N[C@@H](CC(C)C)C(=O)NCCN` [Example 2, NAcD2Nal-D4ClPhe-D3Pal-Ser-NMeTyr-DLys(Nic)-Leu-NH--(CH2)2 NH2] (Ac-[d2Nal][dPhe(4-Cl)][d3Pal]S[NMeY][dK](Nicotinoyl)L-Ethylenediamine), the “LHRH antagonist potency (pA2)” value is given as 9.58. The same measure for `CC(=O)N[C@H](Cc1ccc2ccccc2c1)C(=O)N[C@H](Cc1ccc(Cl)cc1)C(=O)N[C@H](Cc1cccnc1)C(=O)N[C@@H](CO)C(=O)N(C)[C@@H](Cc1ccc(O)cc1)C(=O)N[C@H](CCCCNC(=O)c1cccnc1)C(=O)N[C@@H](CC(C)C)C(=O)NCCN1CCCC1` [Example 3, NAcD2Nal-D4ClPhe-D3Pal-Ser-NMeTyr-DLys(Nic)-Leu-NH--(CH2)2 -(1-pyrrolidine)] (Ac-[d2Nal][dPhe(4-Cl)][d3Pal]S[NMeY][dK](Nicotinoyl)L-{NH(2-pyrrolidin-1-ylethyl)}): 11.27. With `CCN(CC)C(=O)[C@H](CC(C)C)NC(=O)[C@@H](CCCCNC(=O)c1cccnc1)NC(=O)[C@H](Cc1ccc(O)cc1)N(C)C(=O)[C@H](CO)NC(=O)[C@@H](Cc1cccnc1)NC(=O)[C@@H](Cc1ccc(Cl)cc1)NC(=O)[C@@H](Cc1ccc2ccccc2c1)NC(C)=O` [Example 4, NAcD2Nal-D4ClPhe-D3Pal-Ser-NMeTyr-DLys(Nic)-Leu-N(CH2 CH3)2] (Ac-[d2Nal][dPhe(4-Cl)][d3Pal]S[NMeY][dK](Nicotinoyl)L-NEt2), the “LHRH antagonist potency (pA2)” value is 7.96.

With `CC(=O)N[C@H](Cc1ccc2ccccc2c1)C(=O)N[C@H](Cc1ccc(Cl)cc1)C(=O)N[C@H](Cc1cccnc1)C(=O)N[C@@H](CO)C(=O)N(C)[C@@H](Cc1ccc(O)cc1)C(=O)N[C@H](CCCCNC(=O)c1cccnc1)C(=O)N[C@@H](CC(C)C)C(=O)NCCCCCCN` [Example 5, NAcD2Nal-D4ClPhe-D3Pal-Ser-NMeTyr-DLys(Nic)-Leu-NH--(CH2)6 NH2] (Ac-[d2Nal][dPhe(4-Cl)][d3Pal]S[NMeY][dK](Nicotinoyl)L-{NH(CH2)6NH2}), the “LHRH antagonist potency (pA2)” value turned out to be 9.91. The same measure for `CC(=O)N[C@H](Cc1ccc2ccccc2c1)C(=O)N[C@H](Cc1ccc(Cl)cc1)C(=O)N[C@H](Cc1cccnc1)C(=O)N[C@@H](CO)C(=O)N(C)[C@@H](Cc1ccc(O)cc1)C(=O)N[C@H](CCCCNC(=O)c1cccnc1)C(=O)N[C@@H](CC(C)C)C(=O)NCCCCN` [Example 6, NAcD2Nal-D4ClPhe-D3Pal-Ser-NMeTyr-DLys(Nic)-Leu-NH--(CH2)4 NH2] (Ac-[d2Nal][dPhe(4-Cl)][d3Pal]S[NMeY][dK](Nicotinoyl)L-{NH(CH2)4NH2}): 9.90.

With `CC(=O)N[C@H](Cc1ccc2ccccc2c1)C(=O)N[C@H](Cc1ccc(Cl)cc1)C(=O)N[C@H](Cc1cccnc1)C(=O)N[C@@H](CO)C(=O)N(C)[C@@H](Cc1ccc(O)cc1)C(=O)N[C@H](CCCCNC(=O)c1cccnc1)C(=O)N[C@@H](CC(C)C)C(=O)NCCO` [Example 7, NAcD2Nal-D4ClPhe-D3Pal-Ser-NMeTyr-DLys(Nic)-Leu-NH--(CH2)2 OH] (Ac-[d2Nal][dPhe(4-Cl)][d3Pal]S[NMeY][dK](Nicotinoyl)L-NHCH2CH2OH), the “LHRH antagonist potency (pA2)” value came to 8.95.

Values taken from US6191115A, “C-terminus modified heptapeptide LHRH analogs” (Abbott Laboratories, priority 1999, dated 2001).
